Entries after “also recorded” stand apart in the source; their conditions may differ.
What was measured:
[1] = system: axillary lymph nodes and their lymphatic vessels; assay: Dynamic 3D-MR lymphangiography, effect of contrast agent size (Example 4); format: in vivo, athymic nu/nu mice; conditions: for Visualization of axillary lymph nodes and their lymphatic vessels: 6-36 minutes post-injection into mammary gland; for Depiction of lymphatic vessels / Signal intensity within the axillary lymph nodes in comparison to G6 and G8 / Signal intensity of adjacent muscle in comparison to G6 and G8: mouse, in vivo; for Signal intensity within the axillary lymph node (enhancement ratio, lymph node / adjacent muscle): 0.15 μmolGd/5 μL
Description: Mice were anesthetized with 1.15 mg sodium pentobarbital (Dainabot, Osaka, Japan) by intraperitoneal injection. Then 0.15 μmolGd/5 μL of all nano-size contrast agents or 0.45 μmolGd/5 μL of Gd-[DTPA]-dimeglumine were injected into normal mammary glands or mammary tissue surrounding a tumor. Dynamic MR images were obtained using a 1.5-Tesla superconductive magnet unit (Signa LX, General Electric Medical System, Milwaukee, Wis.) with a birdcage type coil of 3 cm diameter fixed by a custom-made coil holder. The mice were wrapped with gauze to conserve their body temperature and were placed at the center of the coils.
In order to evaluate the effect of contrast agent molecular size on the ability to visualize the lymphatics and lymph nodes of athymic nu/nu mice, thirty five non-tumor bearing nu/nu mice were divided into seven groups (n=5). The mice were evaluated with 3D-fast spoiled gradient echo (3D-fastSPGR (efgre3d package; Signa Horizon, GE); repetition time/echo time 19.2/7.2 msec; inversion time 47 msec; bandwidth 31.2 kHz, flip angle 30°, 4 excitations; 36 slice encoding steps; scan time 4 minutes 49 seconds) with chemical shift fat-suppression at 6, 12, 18, 24, 30, and 36 minutes post-injection of each contrast agent. The coronal images were reconstructed with 0.6-mm section thickness every 0.3-mm. The field of view was 8×4 cm and the size of the matrix was 512×256. The slice data were processed into 3D images using the maximum intensity projection (MIP) method with the same window and level (window 3500 and level 2100) (Advantage Windows, General Electric Medical System). The enhancement ratio was calculated by taking the average signal intensity in the axillary lymph node and dividing it by the signal intensity in the adjacent muscle.

[2] = system: deep lymphatic system (lymph nodes, thoracic duct); assay: Whole-body dynamic 3D-micro-MRL after intracutaneous injection, normal mice (Examples 2, 3); format: in vivo; conditions: for Number of Mice in Which the Thoracic Duct was Visualized/Number of Mice Examined: Normal Mice, 0.1 μmolGd intracutaneously; for Axillary lymph node-to-background (muscle) signal intensity ratio / Axillary lymph node-to-liver signal intensity ratio: all time points examined; for Axillary lymph node-to-background (muscle) signal intensity ratio: FIG. 11A; for Axillary lymph node-to-liver signal intensity ratio: FIG. 11B
Description: (§1) The mice were anesthetized with 1.15 mg sodium pentobarbital (Dainabot, Osaka, Japan) by intraperitoneal injection, and then injected intracutaneously with 0.1 μmolGd of PAMAM-G8, DAB-G5, PAMAM-G4, Gadomer-17, or GPDM into four middle phalanges in all four extremities. Dynamic micro-MR images were obtained using a 1.5-Tesla superconductive magnet unit (Signa LX, General Electric Medical System, Milwaukee, Wis.) with a round birdcage type coil of 3 cm diameter fixed by a custom-made coil holder. Four to eight female mice (7 weeks old, 18-21 g body weight) in each group were used and each contrast agent was prepared at least three separate times for these imaging studies. The mice were wrapped with gauze to stabilize their body temperature and were placed at the center of the coils.
(§2) A 3D-fast spoiled gradient echo (3D-fastSPGR (efgre3d package; Signa Horizon, GE); repetition time/echo time 28.5/7.9 msec; inversion time 65 msec; 31.2 kHz, flip angle 30°, four excitations; 40 slice-encoding steps; scan time 7 min 36 seconds) with chemical shift fat-suppression was used 10, 20, 30, and 45 min after injection of the contrast agents. The coronal images were reconstructed with 0.6-mm section thickness at every 0.3-mm. The field of view was 6×3 cm and the size of the matrix was 512×256. The intensities of the regions of interest (for example, a whole axillary lymph node, and the liver) were measured, and then the time-intensity curves analyzed. The data were expressed as the axillary lymph node-to-muscle and the axillary lymph node-to-liver ratios. The slice data were processed into 3D images using the MIP method with the same window and level (window 3500 and level 2300) (Advantage Windows, General Electric Medical System). Two board-certified radiologists separately read a set of stereo views of 3D-MRL for all studies, and estimated the visualization of the thoracic duct. After imaging, the mice were sacrificed by carbon dioxide inhalation.
In this example, the PAMAM-G8 contrast agent is compared to GPDM. PAMAM-G8 was prepared as described in Example 2, and GPDM was purchased (Schering AG, Berlin, Germany). Animal models, administration of the contrast agents, and 3D-micro-MRL were as described in Example 2.

[3] = system: lymphatic vessels and lymph nodes of disease model mice; assay: 3D-micro-MRL in lymphatic disease models (Concanavalin A lymphangitis, IL-15 transgenic); format: in vivo; conditions: for Visualization of lymph nodes in lymphoproliferation/lymphoma: 45 minutes after injection
Description: To generate a lymphangitis model, Concanavalin A ([…]) (Sigma, St. Louis, Mo.) was injected intravenously into C57BL6 mice (NCI, Frederick, Md.) 24 hours before MRI was performed.
Eight- to 10-month old IL-15 transgenic mice (on a C57BL6 background) were used as a chronic lymphoproliferative/neoplastic disease model because they manifested selective expansion of NK, CD8^+NK-T, γδIELs, and CD8 T cells in the periphery. Most of the lymph nodes collected from an aged IL-15 transgenic mouse were enlarged in size. The lesion of proliferated monoclonal lymphocytes often involved the lung and the subcutaneous lymphatic tissue.
as §1, §2

[4] = in vivo
[5] = Example 2, normal mice, 10-45 min after injection

Row | Substance | Visualization of axillary lymph nodes and their lymphatic vessels [1] | Depiction of lymphatic vessels [1] | Signal intensity within the axillary lymph nodes in comparison to G6 and G8 [1] | Number of Mice in Which the Thoracic Duct was Visualized/Number of Mice Examined ([2]; 10 min) | Number of Mice in Which the Thoracic Duct was Visualized/Number of Mice Examined ([2]; 20 min) | Number of Mice in Which the Thoracic Duct was Visualized/Number of Mice Examined ([2]; 30 min) | Number of Mice in Which the Thoracic Duct was Visualized/Number of Mice Examined ([2]; 45 min) | Axillary lymph node-to-background (muscle) signal intensity ratio [2] | Axillary lymph node-to-liver signal intensity ratio [2] | Visualization of lymph nodes in lymphoproliferation/lymphoma ([3]; IL-15 transgenic mice, FIG. 13) | Visualization of deep lymph nodes [2, 5] | other results
1 | DAB-Am-128-(Gd-1B4M)128 dendrimer conjugate [DAB-G5] | superior to the G2 and G4 PAMAM dendrimers; also recorded: better contrast than PAMAM dendrimer-based agents of similar sizes | neither agent depicted lymphatic vessels | lower signal intensities | 3/5 | 2/5 | 0/5 | 0/5 | significantly higher than that obtained with either PAMAM-G8 or PAMAM-G4 | nearly equivalent, but were significantly higher than that measured with GPDM | considerable multiple lymph node swellings with central filling defects | – | –
2 | Gadomer-17 [reference compound] | superior to the G2 and G4 PAMAM dendrimers; also recorded: better contrast than PAMAM dendrimer-based agents of similar sizes | neither agent depicted lymphatic vessels | lower signal intensities | 2/5 | 2/5 | 1/5 | 1/5 | significantly higher than that acquired with GPDM | nearly equivalent, but were significantly higher than that measured with GPDM | – | allowed visualization of the deep lymph nodes, albeit not as clearly and brightly as the dendrimer-based agents | Clearance from the body ([4]; iv): rapidly cleared from the body; Signal intensity of adjacent muscle in comparison to G6 and G8 [1]: significantly higher than those measured with G6 and G8
3 | PAMAM-G4D-(Gd-1B4M)64 dendrimer conjugate | able to depict the lymph nodes only faintly and then only up to 12 minutes post-injection | – | – | 4/5 | 4/5 | 3/5 | 2/5 | significantly higher than that measured with Gadomer-17 and GPDM | significantly higher than that acquired with PAMAM-G8, DAB G-5, or Gadomer-17 | – | – | Survival in the blood circulation [4]: short survival in the blood circulation due to a rapid renal excretion without significant retention in other organs; Signal intensity of adjacent muscle in comparison to G6 and G8 ([1]; listed as G4): significantly higher than those measured with G6 and G8; also recorded: higher signal in the adjacent muscle; Signal intensity within the axillary lymph nodes in comparison to G6 and G8 ([1]; listed as G4): lower signal intensities; also recorded: significantly lower signal
4 | PAMAM-G7D-(Gd-1B4M)1024 dendrimer conjugate [PAMAM-G8] | visualized at all time points in all 10 mice | – | – | 10/10 | 10/10 | 10/10 | 10/10 | significantly higher than that measured with Gadomer-17 and GPDM | nearly equivalent, but were significantly higher than that measured with GPDM | considerable multiple lymph node swellings with central filling defects | enabled most of the deep lymph nodes to be visualized | Leakage out of the lymphatic vessels [4]: minimal leakage out of the lymphatic vessels; Signal intensity within the axillary lymph node (enhancement ratio, lymph node / adjacent muscle) ([1]; 6 minutes post-injection): 1.7±0.2; Signal intensity within the axillary lymph node (enhancement ratio, lymph node / adjacent muscle) ([1]; 12 minutes post-injection): 2.3±0.2; Visualization of lymphatic vessels ([2]; Example 2): better visualized with PAMAM-G8 compared to all other agents examined; Visualization by a radiologist of the thoracic duct ([2]; Example 2, all times after administration): in all mice at all times after administration; Visualization of deep lymph nodes ([2]; Example 3, FIG. 15): most deep lymph nodes throughout the body were visualized; Visualization of the thoracic duct ([2]; Example 3, FIG. 15): visualized in all six mice; Visualization of lymphatic vessels in lymphangitis ([3]; Concanavalin A lymphangitis model, FIG. 12): demonstrated the remarkable dilation of the lymphatic vessels throughout the body, especially in the liver; Visualization of dilation of lymphatic vessels ([3]; IL-15 transgenic mice, FIG. 13): best visualized with PAMAM-G8

— patent publication US20060204443A1, “Methods for tumor treatment using dendrimer conjugates” (The Government of the USA as represented by the Secretary …, priority 2005, published 2006)
